The values below come from patent US12577217B2, “15-PGDH inhibitor” (KYORIN Pharmaceutical Co., Ltd., priority 2019, dated 2026).

A word on the IC50: it is the concentration needed to halve the response being measured.

This assay deals with T1, recombinant human 15-PGDH (Homo sapiens, UniProt P15428).
T1 construct: purchased R&D Systems
T1 sequence (P15428 1-266): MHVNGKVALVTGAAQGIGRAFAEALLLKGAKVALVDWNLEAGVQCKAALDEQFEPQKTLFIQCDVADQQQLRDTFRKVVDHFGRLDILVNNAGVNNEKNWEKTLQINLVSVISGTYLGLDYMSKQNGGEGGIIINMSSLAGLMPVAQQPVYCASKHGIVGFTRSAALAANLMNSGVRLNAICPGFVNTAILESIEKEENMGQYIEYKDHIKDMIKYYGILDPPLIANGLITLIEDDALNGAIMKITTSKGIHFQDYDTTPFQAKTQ
Kind of assay: 15-PGDH enzyme inhibition test. The assay is classed as biochemical. Particulars: 4 nM recombinant human 15-PGDH, 30 μM PGE2, 1 mM NAD+, 60 minutes after starting the reaction; read-out: IC50 Value. How it is done:
15-PGDH Enzyme Inhibition Test
A test compound and 4 nM recombinant human 15-PGDH (R&D Systems) were added, in 50 mM Tris-HCl (pH 8.0) containing 0.01% TWEEN 20 (Sigma) and 0.01% bovine gamma globulin (Sigma), to a 384-well Flat Bottom Black plate (Corning, 3820), and the resultant was allowed to stand still at room temperature for 12 minutes, and 30 μM PGE2 (Cayman Chemical) and 1 mM NAD+ (Sigma) were added thereto to start the reaction. 60 minutes after starting the reaction, measurement was performed using Synergy 2 (BioTeck) at an excitation wavelength of 340 nm and a fluorescence wavelength of 440 nm. Assuming that a fluorescence signal obtained with an assay buffer added instead of the test compound and NAD+ was 100% and that a signal obtained with NAD+ added was 0%, a concentration corresponding to 50% inhibition plotted on a concentration-reaction curve of the test compound was defined as an IC50 value. Incidentally, in the following tables, an IC50 value smaller than 10 nM was shown as +++, an IC50 value equal to or larger than 10 nM and smaller than 100 nM was shown as ++, and an IC50 value equal to or larger than 100 nM was shown as +.

Take `CNC(=O)c1ncc(N2CCCc3cc(C(=O)N4CCCCC4)cnc32)cc1F` [Example 1-69]: the IC50 is under 10 nM.
For the compound `CCOCCn1nc2cc(N3CCCc4cc(C(=O)N5CCCCC5)cnc43)ccn2c1=O` [Example 1-70], the IC50 is under 10 nM.
In the case of `COCCOCCn1nc2cc(N3CCCc4cc(C(=O)N5CCCCC5)cnc43)ccn2c1=O` [Example 1-71], the IC50 was under 10 nM.
As to `COCCN1Cc2cc(N3CCCc4cc(C(=O)N5CCCCC5)cnc43)ncc2C1=O` [Example 1-72], the IC50 fell in the range of 10 to 100 nM.
Regarding `CCOCCN1Cc2cc(N3CCCc4cc(C(=O)N5CCCCC5)cnc43)ncc2C1=O` [Example 1-73], the IC50 was 10 to 100 nM.
`O=C(c1cnc2c(c1)CCCN2c1cc2c(cn1)C(=O)N(C1COC1)C2)N1CCCCC1` [Example 1-74]: the IC50 fell in the range of 10 to 100 nM.
In the case of `CCn1nc2cc(N3CCCc4cc(C(=O)N5CCC(F)(F)CC5)cnc43)ccn2c1=O` [Example 1-75], the IC50 is under 10 nM.
For `COCn1nc2cc(N3CCCc4cc(C(=O)N5CCC(F)(F)CC5)cnc43)ccn2c1=O` [Example 1-76], the IC50 is under 10 nM.
For `CCOCn1nc2cc(N3CCCc4cc(C(=O)N5CCC(F)(F)CC5)cnc43)ccn2c1=O` [Example 1-77], the IC50 is under 10 nM.
Consider `COCCn1nc2cc(N3CCCc4cc(C(=O)N5CCC(F)(F)CC5)cnc43)ccn2c1=O` [Example 1-78], for which the IC50 was under 10 nM.
For `CCOCCn1nc2cc(N3CCCc4cc(C(=O)N5CCC(F)(F)CC5)cnc43)ccn2c1=O` [Example 1-79], the IC50 is under 10 nM.
For the compound `COCCOCCn1nc2cc(N3CCCc4cc(C(=O)N5CCC(F)(F)CC5)cnc43)ccn2c1=O` [Example 1-80], the IC50 was under 10 nM.
Take `CN1Cc2cc(N3CCCc4cc(C(=O)N5CCC(F)(F)CC5)cnc43)ccc2C1=O` [Example 1-81]: the IC50 is under 10 nM.
With `COCCN1Cc2cc(N3CCCc4cc(C(=O)N5CCC(F)(F)CC5)cnc43)ccc2C1=O` [Example 1-82], the IC50 is under 10 nM.
`CCOCCN1Cc2cc(N3CCCc4cc(C(=O)N5CCC(F)(F)CC5)cnc43)ccc2C1=O` [Example 1-83]: the IC50 is under 10 nM.
Under `CN1Cc2cc(N3CCCc4cc(C(=O)N5CCC(F)(F)CC5)cnc43)cnc2C1=O` [Example 1-84] stands under 10 nM.
Regarding `CN1Cc2cc(N3CCCc4cc(C(=O)N5CCC(F)(F)CC5)cnc43)ncc2C1=O` [Example 1-85], the IC50 fell in the range of 10 to 100 nM.
Under `COCCN1Cc2cc(N3CCCc4cc(C(=O)N5CCC(F)(F)CC5)cnc43)ncc2C1=O` [Example 1-86] stands 10 to 100 nM.
As for `Cn1cnc2cc(N3CCCc4cc(C(=O)N5CCCCC5)cnc43)ccc2c1=O` [Example 1-87], the IC50 is under 10 nM.
Take `Cn1cnc2cc(N3CCCc4cc(C(=O)N5CCC(F)(F)CC5)cnc43)ccc2c1=O` [Example 1-88]: the 50% inhibitory concentration (IC50) was under 10 nM.
In the case of `COC(=O)c1cn(C)c2cc(N3CCOc4cc(C(=O)N5CCCCC5)cnc43)ccc12` [Example 1-90], the 50% inhibitory concentration (IC50) lay within 10 to 100 nM.
For `Cn1ccc2ccc(N3CCOc4cc(C(=O)N5CCCCC5)cnc43)cc21` [Example 1-91], the IC50 fell in the range of 10 to 100 nM.
Under `COC(=O)c1cc2ccc(N3CCOc4cc(C(=O)N5CCCCC5)cnc43)cc2n1C` [Example 1-92] stands under 10 nM; under `Cn1nc2cc(N3CC(C)(C)Oc4cc(C(=O)N5CCCCC5)cnc43)ccn2c1=O` [Example 1-93], under 10 nM; under `Cn1nc2cc(N3CCCc4cc(C(=O)N5CCCCC5)cnc43)ccn2c1=O` [Example 1-94], under 10 nM.
As for `C[C@H]1COc2cc(C(=O)N3CCCCC3)ccc2N(c2ccn3c(=O)n(C)nc3c2)C1` [Example 1-95], the 50% inhibitory concentration (IC50) was under 10 nM.
For the compound `C[C@@H]1COc2cc(C(=O)N3CCCCC3)ccc2N(c2ccn3c(=O)n(C)nc3c2)C1` [Example 1-96], the IC50 was under 10 nM.
Under `Cn1nc2cc(N3CCSc4cc(C(=O)N5CCCCC5)ccc43)ccn2c1=O` [Example 1-97] stands under 10 nM; under `Cn1nc2cc(N3CCCCOc4cc(C(=O)N5CCCCC5)cnc43)ccn2c1=O` [Example 1-98], 10 to 100 nM.
